Laboratory results reported in patent US8895558B2, “Arylpiperazine-containing pyrrole 3-carboxamide derivatives for treating depressive disorders” (Green Cross Corporation, priority 2008, dated 2014).
Where a name gives a salt, the structure may show the parent alone.

Experiments:
[1] = biological target: T1, human recombinant serotonin 5-HT2A receptor (Homo sapiens, UniProt P28223); test: Binding affinity for serotonin 5-HT2A receptor ([3H]Ketanserin); conditions: CHO-K1 expressed receptor, 1 nM [3H]Ketanserin
T1 construct: purchased PerkinElmer Life and Analytical Sciences, USA; host or cells: CHO-K1
Method: Receptor binding affinities of the compounds for serotonin receptors were measured by the method described in the literature [Park W K et al., Pharmacol Biochem Behav. 2005, 82(2), 361-372].
For serotonin 5-HT2A binding, an aliquot of human recombinant serotonin 5-HT2A receptor (PerkinElmer Life and Analytical Sciences, USA) expressed in CHO-K1 cells (5 ug/well) and 1 nM [^3H]Ketanserin (PerkinElmer) were used in the presence of mianserin (20 uM) as nonspecific. The reaction mixture was incubated for 60 min at 27 using 50 mM Tris-HCl (pH 7.4) buffer containing 4 mM CaCl2 and 0.1% ascorbic acid, and harvested through filtermate A glass fiber filter (Wallac, Finland) presoaked in 0.5% polyethyleneimine (PEI) by microbeta filtermate-96 harvester (PerkinElmer) to terminate the reaction, and then washed with ice cold 50 mM Tris-HCl buffer solution (pH 7.4). The filter was then covered with MeltiLex, sealed in a sample bag, dried in an oven. The radioactivity retained in the filter was finally counted using MicroBeta Plus (Wallac).
(§1) The binding affinity (IC50) of a compound for the receptor was calculated by computerized nonlinear regression analysis (GraphPad Prism Program, San Diego, USA) using 7-8 varied concentrations of the compound run in duplicate tubes.

[2] = biological target: T2, human recombinant 5-HT2C receptor (Homo sapiens, UniProt P28335); test: Binding affinity for serotonin 5-HT2C receptor ([3H]Mesulergine); conditions: CHO-K1 membranes, 1.3 nM [3H]Mesulergine
T2 construct: purchased PerkinElmer
T2 sequence (P28335 33-458): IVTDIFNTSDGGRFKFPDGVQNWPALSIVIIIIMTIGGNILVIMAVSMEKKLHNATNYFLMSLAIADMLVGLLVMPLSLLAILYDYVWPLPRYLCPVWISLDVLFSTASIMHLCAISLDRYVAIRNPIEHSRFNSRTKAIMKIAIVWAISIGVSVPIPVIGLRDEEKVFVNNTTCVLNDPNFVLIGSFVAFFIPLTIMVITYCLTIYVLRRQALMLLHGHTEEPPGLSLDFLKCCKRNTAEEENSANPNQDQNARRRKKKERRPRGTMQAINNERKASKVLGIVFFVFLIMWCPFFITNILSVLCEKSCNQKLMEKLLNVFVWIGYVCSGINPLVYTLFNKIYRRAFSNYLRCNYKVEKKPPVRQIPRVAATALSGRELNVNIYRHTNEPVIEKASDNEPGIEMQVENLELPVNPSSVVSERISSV
Method: Receptor binding affinities of the compounds for serotonin receptors were measured by the method described in the literature [Park W K et al., Pharmacol Biochem Behav.
as §1
Nonspecific binding was determined using 100 uM mianserin. The incubations were performed for 60 min at 27, and these were terminated by rapid filtration through filtermate. A glass fiber filter presoaked in 0.5% PEI.

[3] = biological target: T3, human serotonin transporter (Homo sapiens, UniProt P31645); test: Binding affinity for serotonin transporter ([3H]Imipramine); conditions: HEK-293 membranes, 2 nM [3H]Imipramine
T3 construct: purchased PerkinElmer; host or cells: HEK-293
Method: For serotonin transporter binding assays, a reaction mixture with a final volume of 0.25 ml was prepared by mixing a test compound, human serotonin transporter membrane expressed in HEK-293 cells (PerkinElmer, 5 ug/well), [^3H]Imipramine (PerkinElmer, 2 nM) and 50 mM Tris-HCl (pH 7.4) buffer containing 120 mM NaCl and 5 mM KCl. The reaction mixture was incubated for 30 min at 27, and harvested through filtermate. A glass fiber filter presoaked in 0.5% PEI with ice cold 50 mM Tris-HCl buffer (pH 7.4) containing 0.9% NaCl.

T1 sequence (P28223 whole entry): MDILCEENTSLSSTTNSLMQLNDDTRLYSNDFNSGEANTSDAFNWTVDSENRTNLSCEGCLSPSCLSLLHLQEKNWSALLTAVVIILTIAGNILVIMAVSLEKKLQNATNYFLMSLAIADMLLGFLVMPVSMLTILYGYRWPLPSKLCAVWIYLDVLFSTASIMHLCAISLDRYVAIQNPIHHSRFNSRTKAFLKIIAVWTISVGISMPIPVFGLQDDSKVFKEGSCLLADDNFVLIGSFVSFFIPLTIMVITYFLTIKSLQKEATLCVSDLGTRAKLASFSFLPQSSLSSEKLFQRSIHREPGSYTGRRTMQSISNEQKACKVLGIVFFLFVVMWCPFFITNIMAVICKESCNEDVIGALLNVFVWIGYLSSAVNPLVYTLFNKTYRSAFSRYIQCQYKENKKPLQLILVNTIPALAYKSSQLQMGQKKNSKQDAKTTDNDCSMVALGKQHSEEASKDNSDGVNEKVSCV
T3 sequence (P31645 whole entry): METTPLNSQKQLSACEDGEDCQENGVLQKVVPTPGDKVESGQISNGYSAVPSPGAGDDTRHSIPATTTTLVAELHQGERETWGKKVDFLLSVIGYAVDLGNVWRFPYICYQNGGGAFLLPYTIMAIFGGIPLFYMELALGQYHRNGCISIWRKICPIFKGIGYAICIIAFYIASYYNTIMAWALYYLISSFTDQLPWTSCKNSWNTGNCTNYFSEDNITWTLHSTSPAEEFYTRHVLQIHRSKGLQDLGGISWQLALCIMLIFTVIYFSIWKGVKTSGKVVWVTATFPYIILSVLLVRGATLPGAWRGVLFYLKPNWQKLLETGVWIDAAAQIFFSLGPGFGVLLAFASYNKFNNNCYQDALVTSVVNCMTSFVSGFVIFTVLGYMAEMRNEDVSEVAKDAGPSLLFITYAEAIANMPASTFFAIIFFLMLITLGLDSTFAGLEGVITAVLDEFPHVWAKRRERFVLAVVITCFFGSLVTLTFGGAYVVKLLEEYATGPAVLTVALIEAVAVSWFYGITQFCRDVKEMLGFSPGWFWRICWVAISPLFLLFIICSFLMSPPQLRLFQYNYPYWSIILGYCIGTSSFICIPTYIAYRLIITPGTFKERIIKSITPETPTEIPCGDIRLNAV

Structure (SMILES)	IC50 [1]	IC50 [2]	IC50 [3]
COc1ccc(-c2cc(C(=O)NCCCN3CCN(c4cccc(Cl)c4Cl)CC3)c(C)[nH]2)cc1 [Example 73, N-(3-(4-(2,3-dichlorophenyl)piperazin-1-yl)propyl)-5-(4-methoxyphenyl)-2-methyl-1H-pyrrole-3-carboxamide hydrochloride]	37 nM	201 nM	204 nM
COc1ccc(-c2cc(C(=O)NCCCN3CCN(c4cccc(Cl)c4Cl)CC3)c(C)n2C)cc1 [Example 74, N-(3-(4-(2,3-dichlorophenyl)piperazin-1-yl)propyl)-5-(4-methoxyphenyl)-1,2-dimethyl-1H-pyrrole-3-carboxamide hydrochloride]	108 nM	101 nM	76.2 nM
CCCn1c(-c2ccc(Cl)cc2)cc(C(=O)NCCCN2CCN(c3cccc(Cl)c3Cl)CC2)c1C [Example 66, 5-(4-chlorophenyl)-N-(3-(4-(2,3-dichlorophenyl)piperazin-1-yl)propyl)-2-methyl-1-propyl-1H-pyrrole-3-carboxamide hydrochloride]	333 nM	41 nM	1160 nM
Cc1c(C(=O)NCCCN2CCN(c3cccc(Cl)c3Cl)CC2)cc(-c2ccccc2)n1N1CCCCC1 [Example 13, N-(3-(4-(2,3-dichlorophenyl)piperazin-1-yl)propyl)-2-methyl-5-phenyl-1-(piperidin-1-yl)-1H-pyrrole-3-carboxamide]	67.1 nM	795 nM	298 nM
CCCn1c(-c2ccccc2)cc(C(=O)NCCCN2CCN(c3cccc(Cl)c3Cl)CC2)c1Cl [Example 116]	69 nM	136 nM	1090 nM
Cc1c(C(=O)NCCN2CCN(c3cccc(Cl)c3Cl)CC2)cc(-c2ccc(Cl)cc2)n1C [Example 68, 5-(4-chlorophenyl)-N-(2-(4-(2,3-dichlorophenyl)piperazin-1-yl)ethyl)-1,2-dimethyl-1H-pyrrole-3-carboxamide hydrochloride]	292 nM	24 nM	176 nM
CCn1c(C)c(C(=O)NCCCN2CCN(c3cccc(Cl)c3Cl)CC2)c(C)c1-c1ccccc1 [Example 80, N-(3-(4-(2,3-dichlorophenyl)piperazin-1-yl)propyl)-1-ethyl-2,4-dimethyl-5-phenyl-1H-pyrrole-3-carboxamide hydrochloride]	47 nM	42 nM	97 nM
Cc1c(C(=O)NCCCN2CCN(c3cccc(Cl)c3Cl)CC2)cc(-c2ccccc2)n1CC1CCCCC1 [Example 22, 1-(cyclohexylmethyl)-N-(3-(4-(2,3-dichlorophenyl)piperazin-1-yl)propyl)-2-methyl-5-phenyl-1H-pyrrole-3-carboxamide]	4380 nM	1030 nM	412 nM
Cc1c(C(=O)NCCCN2CCN(c3cccc(Cl)c3)CC2)cc(-c2ccccc2)n1C [Example 1, N-(3-(4-(3-chlorophenyl)piperazin-1-yl)propyl)-1,2-dimethyl-5-phenyl-1H-pyrrole-3-carboxamide]	92 nM	160 nM	11.1 nM
CCn1c(-c2ccccc2)cc(C(=O)NCCCCN2CCN(c3cccc(Cl)c3Cl)CC2)c1C [Example 43, N-(4-(4-(2,3-dichlorophenyl)piperazin-1-yl)butyl)-1-ethyl-2-methyl-5-phenyl-1H-pyrrole-3-carboxamide hydrochloride]	28 nM	28 nM	64 nM
Cc1cccc(N2CCN(CCCCNC(=O)c3cc(-c4ccc(Cl)cc4)[nH]c3C)CC2)c1C [Example 46, 5-(4-chlorophenyl)-N-(4-(4-(2,3-dimethylphenyl)piperazin-1-yl)butyl)-2-methyl-1H-pyrrole-3-carboxamide hydrochloride]	32 nM	88 nM	98 nM
Cc1cccc(N2CCN(CCCNC(=O)c3cc(-c4ccccc4)n(-c4ccc(F)cc4)c3C)CC2)c1C [Example 15, N-(3-(4-(2,3-dimethylphenyl)piperazin-1-yl)propyl)-1-(4-fluorophenyl)-2-methyl-5-phenyl-1H-pyrrole-3-carboxamide]	6.9 nM	162 nM	53.6 nM
Cc1[nH]c(-c2ccccn2)cc1C(=O)NCCCN1CCN(c2cccc(Cl)c2Cl)CC1 [Example 91, N-(3-(4-(2,3-dichlorophenyl)piperazin-1-yl)propyl)-2-methyl-5-(pyridin-2-yl)-1H-pyrrole-3-carboxamide dihydrochloride]	21 nM	211 nM	28 nM
CCn1c(-c2ccc(Cl)cc2)cc(C(=O)NCCCN2CCN(c3cccc(C)c3C)CC2)c1C [Example 63, 5-(4-chlorophenyl)-N-(3-(4-(2,3-dimethylphenyl)piperazin-1-yl)propyl)-1-ethyl-2-methyl-1H-pyrrole-3-carboxamide hydrochloride]	151 nM	39 nM	93 nM
CCCCCCn1c(-c2ccccc2)cc(C(=O)NCCCN2CCN(c3cccc(Cl)c3Cl)CC2)c1C [Example 72, N-(3-(4-(2,3-dichlorophenyl)piperazin-1-yl)propyl)-1-hexyl-2-methyl-5-phenyl-1H-pyrrole-3-carboxamide hydrochloride]	300 nM	68 nM	1190 nM
Cc1[nH]c(-c2ccccc2)cc1C(=O)NCCCN1CCN(c2cccc(Cl)c2)CC1 [Example 23, N-(3-(4-(3-chlorophenyl)piperazin-1-yl)propyl)-2-methyl-5-phenyl-1H-pyrrole-3-carboxamide]	245 nM	280 nM	92 nM
Cc1c(Cl)cccc1N1CCN(CCCNC(=O)c2cc(C)n(-c3ccccc3)c2C)CC1 [Example 176, N-(3-(4-(3-chloro-2-methylphenyl)piperazin-1-yl)propyl)-2,5-dimethyl-1-phenyl-1H-pyrrole-3-carboxamide]	170 nM	127 nM	15 nM
CCCn1c(-c2ccccc2)cc(C(=O)NCCCN2CCN(c3ccccc3C#N)CC2)c1C [Example 90, N-(3-(4-(2-cyanophenyl)piperazin-1-yl)propyl)-2-methyl-5-phenyl-1-propyl-1H-pyrrole-3-carboxamide hydrochloride]	269 nM	637 nM	223 nM
CCn1c(-c2ccc(Cl)cc2)cc(C(=O)NCCN2CCN(c3cccc(Cl)c3Cl)CC2)c1C [Example 69, 5-(4-chlorophenyl)-N-(2-(4-(2,3-dichlorophenyl)piperazin-1-ypethyl)-1-ethyl-2-methyl-1H-pyrrole-3-carboxamide hydrochloride]	412 nM	29 nM	220 nM
CCCCc1cc(C(=O)NCCCN2CCN(c3cccc(Cl)c3Cl)CC2)c(C)n1C [Example 138, 5-butyl-N-(3-(4-(2,3-dichlorophenyl)piperazin-1-yl)propyl)-1,2-dimethyl-1H-pyrrole-3-carboxamide]	134 nM	268 nM	334 nM
Cc1c(C(=O)NCCCN2CCN(c3cccc(Cl)c3)CC2)cc(-c2ccccc2)n1CC1CCCCC1 [Example 20, N-(3-(4-(3-chlorophenyl)piperazin-1-yl)propyl)-1-(cyclohexylmethyl)-2-methyl-5-phenyl-1H-pyrrole-3-carboxamide]	1070 nM	611 nM	213 nM
